Literature values as cited in patent US20200214978A1, “Functional chewing gum comprising phytonutrients and adaptogenic herbs” (BrilliantIQ AB, priority 2017, published 2020).

How the values were obtained:
[1] = oral administration
[2] = supplementation, group of healthy adults

| Molecule | beta waves [1] | delta waves [1] | increase the speed of calculations done in short-term memory [2] [%] |
| --- | --- | --- | --- |
| C[N+](C)(C)CCOP(=O)([O-])OC[C@H](O)CO [alpha-GPC, L-Alpha glycerolphosphorylcholine] | significant increase | significant decrease |  |
| Phosphatidylserine |  |  | 20 |
